In publication PMC9945177, “Nature-Derived Epoxy Resin Monomers with Reduced Sensitizing Capacity—Isosorbide-Based Bis-Epoxides” (Chemical Research in Toxicology, 2023):

Tests used:
[1] = tested on: Female CBA/Ca mice; experiment: murine local lymph node assay (LLNA); format: in vivo
Procedure: Female CBA/Ca mice, 7 to 9 weeks of age, were purchased from NOVA SCB Charles River, Germany. The mice were housed in HEPA-filtered air flow cages and kept on standard laboratory diet and water ad lib. The regional ethics committee, Jordbruksverket, approved the protocol and the procedure was performed in accordance with the guidelines.
A previously published protocol[24] of the LLNA[34] was used to assess the sensitization potential of the isosorbide bis-epoxides 1–3. The purity of the assessed isosorbide bis-epoxides was >99% (GC/MS or LC/MS) before testing of sensitization potential. The isosorbide bis-epoxides were tested in five different concentrations; 1: 3.9 mM (0.10% w/v), 39 mM (1.0% w/v), 190 mM (5.0% w/v), 390 mM (10% w/v), and 770 mM (20% w/v); 2: 21 mM (1.0% w/v), 54 mM (2.5% w/v), 110 mM (5.0% w/v), 210 mM (10% w/v), and 540 mM (25% w/v); and 3: 2.3 mM (0.10% w/v), 23 mM (1.0% w/v), 110 mM (5.0% w/v), 230 mM (10% w/v), and 460 mM (20% w/v). A detailed description is given in Supporting Information.
The three isosorbide bis-epoxides were evaluated for sensitization potential in vivo with the murine LLNA (Figure 2). The stimulation index (SI) is defined as the ratio between the dpm/lymph node for the test group and the control group. Test materials that at one or more concentrations cause an SI greater than 3 are considered positive in the LLNA. The estimated concentration required to induce an SI of 3 (EC3) is used to determine the sensitizing potency of the test compound. […] Isosorbide bis-epoxide 1 gave an EC3 value of 0.17 M (4.4%), 3 gave an EC3 value of 0.36 M (16%), and no EC3 value was obtained for 2 (for full results, see the Supporting Information, Table S1).
A previously published protocol1 of the LLNA2 was used to assess the sensitization potential of the isosorbide bis-epoxides 1-3. The purity of the assessed isosorbide bis-epoxides was >98% according to LC/MS analysis. The isosorbide bis-epoxides were tested in five different concentrations; 1: 3.87 mM […]
456 mM (20% w/v). Briefly, mice in groups of three received 25 µL of test compound dissolved in the vehicle acetone/olive oil (4:1 v/v), on the dorsum of the ears for three consecutive days (day 0, 1, and 2). A sixth group of four mice was treated with vehicle only (control group). On day 5, all mice were injected intravenously via the tail vein with 250 µL of phosphate buffered saline (PBS) (pH 7.4, 137 mM NaCl, 2.7 mM KCl, and 10 mM phosphate buffer) containing 20 µCi [methyl-3H]thymidine. Five hours later the mice were sacrificed, the draining lymph nodes were excised and pooled for each group, followed by preparation of single-cell suspensions of lymph nodes in PBS by using cell strainers (Falcon; BD Labware, Franklin Lakes, NJ, USA; pore size, 70 µm). Cell suspensions were washed twice with PBS, precipitated with trichloroacetic acid (TCA) (5%), and stored at 4 °C overnight. The samples were then centrifuged, resuspended in TCA (5%, 1 mL), and transferred to scintillation cocktail (10 mL) (EcoLume INC Radiochemicals, Solon, OH, USA). The incorporation of [methyl-3H]thymidine into DNA was measured by b-scintillation counting with a Beckman LS 6000TA instrument. Results are expressed as the mean dpm/lymph node for each experimental group and as stimulation index (SI). The SI is defined as the ratio between dpm/lymph node for the test group and the control group. Test materials that at one or more concentrations cause an SI greater than 3 are considered positive in the LLNA. EC3 values (the estimated concentration required to induce an SI of 3) were calculated by linear interpolation.
Results from the Local Lymph Node Assay
Table S1: Full results from the LLNA of bis-epoxides 1-3a
Test Test [3H]thymidine SI EC value

[2] = tested on: AcPHCKRM; experiment: peptide depletion with AcPHCKRM; details: peptide 1 mM, test compound 10 mM, DMSO/phosphate buffer pH 7.4 (1:1), room temperature
Procedure: Liquid chromatography-mass spectroscopy (LC-MS) analyses of peptide depletion experiments were performed using electrospray ionization (ESI) on a Hewlett-Packard 1100 HPLC/MS (Agilent Technologies, Waldbronn, Germany). The system included a vacuum degasser, a binary pump, an autoinjector, a column thermostat, a diode array detector, and a single quadrupole mass spectrometer. The high-performance liquid chromatography (HPLC) system was equipped with a HyPURITY C18 column (150 × 3 mm i.d., particle size 3 μm, Thermo Hypersil-Keystone, Thermo Electron Corp., Bellafonte, PA, USA). The mobile phase consisted of 0.005% pentafluoropropanoic acid, 0.1% acetic acid, and 5% acetonitrile in water (solvent A) and 0.005% pentafluoropropanoic acid, 0.1% acetic acid, and 50% water in acetonitrile (solvent B). […] The gradient conditions used were as follows: 0-8% B (0-3 min), 8-10% B (3-15 min), 10-100% B (15-18 min), 100% B (18-30 min), 100-0% B (30-30.1 min), 0% B (30.1-40 min). The ESI interface was used in positive ionization mode with the following spray chamber settings: nebulizer pressure, 35 psi; capillary voltage, 3000 V; drying gas temperature, 350 °C; and drying gas flow rate, 12 L/min. The fragmentor voltage was set to 120 V. The mass spectrometer was used in scan mode detecting molecular ions with m/z values ranging from 50 to 1800. All solvents were degassed with argon prior to use.

[3] = thermogravimetric analysis (TGA) of polymers formed with TETA; format: physicochemical; details: polymer cured with TETA, TGA under nitrogen
Procedure: Detailed information on the polymerization procedure and the thermogravimetric analysis (TGA) is given in the Supporting Information.
Pilot experiments using TGA were conducted to investigate the properties of the polymers formed from isosorbide bis-epoxides 1–3 and the commonly used curing agent TETA (Table 2 and Figure 6). The onset of degradation is described by the initial decomposition temperature (IDT) and is an indication of the thermal stability of the cured epoxy resins. The maximum weight loss rate (Rmax) and the temperature (Tmax) at Rmax were taken from the peak values of the thermograms. The activation energies (Ea) for the decomposition of the polymers were calculated from the thermograms based on the Horowitz–Metzger equation.[43],[44]

[4] = estimated concentration required to induce an SI of 3, linear interpolation

Row | Structure (SMILES) | SI ([1]; test concentration 1.0% w/v) | [3H]thymidine incorporation (dpm/lymph node) ([1]; test concentration 1.0% w/v) | SI ([1]; test concentration 5.0% w/v) | [3H]thymidine incorporation (dpm/lymph node) ([1]; test concentration 5.0% w/v) | SI ([1]; test concentration 10% w/v) | [3H]thymidine incorporation (dpm/lymph node) ([1]; test concentration 10% w/v) | reactivity with the model peptide AcPHCKRM [2] | Ea (activation energy for the decomposition of the cured epoxy resins) [3] | IDT (initial decomposition temperature) [3] | Rmax (maximum weight loss rate) [3] | Tmax (temperature at the maximum rate of weight loss) [3] | further results
1 | O=C(OC1COC2C(OC(=O)c3ccc(CC4CO4)cc3)COC12)c1ccc(CC2CO2)cc1 [Compound 2, (3R,3aR,6S,6aR)-3,6-O-Bis[4-(3,4-epoxypropyl)benzoyl]-1,4:3,6-dianhydro-D-glucitol] | 1.06 | 455 dpm/lymph node | 1.10 | 473 dpm/lymph node | 1.07 | 459 dpm/lymph node | least reactive | 15.8 kcal/mol | 361 °C | –0.373 %/°C | 411 °C | LLNA outcome ([1]; in concentrations up to 25% w/v (0.54 M)): nonsensitizing; SI ([1]; test concentration 2.5% w/v): 1.43; [3H]thymidine incorporation (dpm/lymph node) ([1]; test concentration 2.5% w/v): 614 dpm/lymph node; SI ([1]; test concentration 25% w/v): 2.27; [3H]thymidine incorporation (dpm/lymph node) ([1]; test concentration 25% w/v): 972 dpm/lymph node
2 | c1cc(CC2CO2)ccc1CO[C@H]1CO[C@H]2[C@@H]1OC[C@H]2OCc1ccc(CC2CO2)cc1 (stereo partly drawn) [Compound 3, (3R,3aR,6S,6aR)-3,6-O-Bis[4-(3,4-epoxypropyl)benzyl]-1,4:3,6-dianhydro-D-glucitol] | 1.56 | 706 dpm/lymph node | 2.55 | 1158 dpm/lymph node | 2.85 | 1292 dpm/lymph node | slightly less reactive | 18.2 kcal/mol | 329 °C | –0.722 %/°C | 382 °C | EC3 value (%) ([1]; as printed in main text): 16%; sensitizing potency classification ([1]; classified by EC3): moderate (EC3 > 2%, moderate); EC3 value [1, 4]: 0.36 M; EC3 value (% w/v) [1, 4]: 15.8 % w/v; SI ([1]; test concentration 0.10% w/v): 1.06; [3H]thymidine incorporation (dpm/lymph node) ([1]; test concentration 0.10% w/v): 479 dpm/lymph node; SI ([1]; test concentration 20% w/v): 3.11; [3H]thymidine incorporation (dpm/lymph node) ([1]; test concentration 20% w/v): 1412 dpm/lymph node
